Patent US9211310B2, “Use of a Chinese medicine composition in preparing medicaments for treating secondary prevention of myocardial infarction” (TASLY PHARMACEUTICAL GROUP CO., LTD, priority 2010, dated 2015)

Test system: patients after acute myocardial infarction
Test: Life quality, Seattle Angina Questionnaire (SAQ), same clinical trial
Format: in vivo, human
Details: PP
Description: 3508 patients who were in accordance with the diagnostic standards of AMI for 28 days to 2 years and differentiated as Qi deficiency and blood stagnation syndrome by TCM were studied. 0.5 g Chinese medicine composition prepared by the method of EXAMPLE 1 (Coded as QSYQ) was administrated half an hour after meal, 3 times per day.
There were 19 questions in the Seattle angina questionnaire (SAQ), including 5 parts: physical limitation (PL), anginal stability (AS), anginal frequency (AF), treatment satisfaction (TS) and disease perception (DP). After being given necessary explanation by doctors, the questions were answered independently by patients.
They included the overall survival time, angina pectoris score, TCM symptom score and life quality score, where angina pectoris score, TCM symptom score and life quality score were evaluated at randomization, in 1st, 3rd, 6th, 9th, 12th month after treatment and 18th month after follow-up.
All evaluation results of SAQ were described during the period of observation, and Wilcoxon rank sum test was used for inter-group comparison.
The evaluation results in the SAQ were depicted in different observations, and inter-group comparison was tested by Wilcoxon Rank-sum test.

CC(=O)Oc1ccccc1C(=O)O [Control group, aspirine]
SAQ 5th question, <1 time per week: number of patients (9 months after treatment): 412 | SAQ 5th question, No onset: % of patients (9 months after treatment): (4.66%) | SAQ 5th question, No onset: number of patients (9 months after treatment): 67 | SAQ 5th question, ≧3 times per week: % of patients (9 months after treatment): (29.49%) | SAQ 5th question, ≧3 times per week: number of patients (9 months after treatment): 424 | SAQ 5th question, ≧4 times per day: % of patients (9 months after treatment): (0.49%) | SAQ 5th question, ≧4 times per day: number of patients (9 months after treatment): 7 | SAQ 6th question, Dissatisfied: % of patients (9 months after treatment): (0.07%) | SAQ 6th question, Dissatisfied: number of patients (9 months after treatment): 1 | SAQ 6th question, Highly satisfied: % of patients (9 months after treatment): (24.93%) | SAQ 6th question, Highly satisfied: number of patients (9 months after treatment): 359 | SAQ 6th question, Mostly dissatisfied: % of patients (9 months after treatment): (1.53%) | SAQ 6th question, Mostly dissatisfied: number of patients (9 months after treatment): 22 | SAQ 6th question, Mostly satisfied: % of patients (9 months after treatment): (59.38%) | SAQ 6th question, Mostly satisfied: number of patients (9 months after treatment): 855 | SAQ 6th question, Partly satisfied: % of patients (9 months after treatment): (14.10%) | SAQ 6th question, Partly satisfied: number of patients (9 months after treatment): 203 | SAQ 7th question, Dissatisfied: % of patients (9 months after treatment): (0.07%) | SAQ 7th question, Dissatisfied: number of patients (9 months after treatment): 1 | SAQ 7th question, Highly satisfied: % of patients (9 months after treatment): (28.44%) | SAQ 7th question, Highly satisfied: number of patients (9 months after treatment): 409 | SAQ 7th question, Most dissatisfied: % of patients (9 months after treatment): (0.83%) | SAQ 7th question, Most dissatisfied: number of patients (9 months after treatment): 12 | SAQ 7th question, Mostly satisfied: % of patients (9 months after treatment): (59.74%) | SAQ 7th question, Mostly satisfied: number of patients (9 months after treatment): 859 | SAQ 7th question, Partly satisfied: % of patients (9 months after treatment): (10.92%) | SAQ 7th question, Partly satisfied: number of patients (9 months after treatment): 157 | SAQ Question 1-1 Mildly limited, number of patients (9 months after treatment): 18 | SAQ Question 1-1 Mildly limited, percent of patients (9 months after treatment): (1.25%) | SAQ Question 1-1 Moderately limited, number of patients (9 months after treatment): 3 | SAQ Question 1-1 Moderately limited, percent of patients (9 months after treatment): (0.21%) | SAQ Question 1-1 Not limited, number of patients (9 months after treatment): 1366 | SAQ Question 1-1 Not limited, percent of patients (9 months after treatment): (95.06%) | SAQ Question 1-1 Other reasons, number of patients (9 months after treatment): 3 | SAQ Question 1-1 Other reasons, percent of patients (9 months after treatment): (0.21%) | SAQ Question 1-1 Severely limited, number of patients (9 months after treatment): 0 | SAQ Question 1-1 Severely limited, percent of patients (9 months after treatment): (0.00%) | SAQ Question 1-1 Slightly limited, number of patients (9 months after treatment): 47 | SAQ Question 1-1 Slightly limited, percent of patients (9 months after treatment): (3.27%) | SAQ Question 1-2 Mildly limited, number of patients (9 months after treatment): 20 | SAQ Question 1-2 Mildly limited, percent of patients (9 months after treatment): (1.39%) | SAQ Question 1-2 Moderately limited, number of patients (9 months after treatment): 4 | SAQ Question 1-2 Moderately limited, percent of patients (9 months after treatment): (0.28%) | SAQ Question 1-2 Not limited, number of patients (9 months after treatment): 1358 | SAQ Question 1-2 Not limited, percent of patients (9 months after treatment): (94.50%) | SAQ Question 1-2 Other reasons, number of patients (9 months after treatment): 5 | SAQ Question 1-2 Other reasons, percent of patients (9 months after treatment): (0.35%) | SAQ Question 1-2 Severely limited, number of patients (9 months after treatment): 0 | SAQ Question 1-2 Severely limited, percent of patients (9 months after treatment): (0.00%) | SAQ Question 1-2 Slightly limited, number of patients (9 months after treatment): 50 | SAQ Question 1-2 Slightly limited, percent of patients (9 months after treatment): (3.48%) | SAQ Question 1-6: Mildly limited, patients (%) (9 months after treatment): (14.59%) | SAQ Question 1-6: Moderately limited, patients (%) (9 months after treatment): (11.31%) | SAQ Question 1-6: Not limited, patients (%) (9 months after treatment): (38.48%) | SAQ Question 1-6: Other reasons, patients (%) (9 months after treatment): (0.91%) | SAQ Question 1-6: Severely limited, patients (%) (9 months after treatment): (2.30%) | SAQ Question 1-6: Slightly limited, patients (%) (9 months after treatment): (32.40%) | SAQ Question 1-7: Mildly limited, patients (%) (9 months after treatment): (21.63%) | SAQ Question 1-7: Moderately limited, patients (%) (9 months after treatment): (10.88%) | SAQ Question 1-7: Not limited, patients (%) (9 months after treatment): (18.30%) | SAQ Question 1-7: Other reasons, patients (%) (9 months after treatment): (3.25%) | SAQ Question 1-7: Severely limited, patients (%) (9 months after treatment): (13.71%) | SAQ Question 1-7: Slightly limited, patients (%) (9 months after treatment): (32.23%) | SAQ Question 1-8: Mildly limited, patients (%) (9 months after treatment): (25.11%) | SAQ Question 1-8: Moderately limited, patients (%) (9 months after treatment): (14.11%) | SAQ Question 1-8: Not limited, patients (%) (9 months after treatment): (12.34%) | SAQ Question 1-8: Other limited, patients (%) (9 months after treatment): (3.76%) | SAQ Question 1-8: Severely limited, patients (%) (9 months after treatment): (17.23%) | SAQ Question 1-8: Slightly limited, patients (%) (9 months after treatment): (27.45%) | 8th question: Dissatisfied, patients (%) (12 months after treatment): (0.00%) | 8th question: Highly satisfied, patients (%) (12 months after treatment): (26.80%) | 8th question: Mostly dissatisfied, patients (%) (12 months after treatment): (1.26%) | 8th question: Mostly satisfied, patients (%) (12 months after treatment): (61.16%) | 8th question: Partly satisfied, patients (%) (12 months after treatment): (10.78%) | 9th question: Few, patients (%) (12 months after treatment): (41.42%) | 9th question: Mild, patients (%) (12 months after treatment): (29.64%) | 9th question: Moderate, patients (%) (12 months after treatment): (4.48%)
